Structures can show the parent of a compound that is named as a salt.

The target in this test is T1, MPO (purified from human polynuclear leukocytes) (Homo sapiens, UniProt P05164).
T1 construct: purified from human polynuclear leukocytes; purchased Calbiochem/EMD Biosciences; host or cells: human polynuclear leukocytes (natural source)
The test is described as follows: MPO Amplex Red Activity Assay. The class given is biochemical. The conditions noted are these: Table 1, 2 μM H2O2, pH 7.4. An outline of the steps: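 Human leukocyte MPO […] oxidises 30 μM Amplex Red with 2 μM H2O2 in 50 mM NaPi pH 7.4, 150 mM NaCl, 1 mM DTPA, 2% DMSO. Resorufin fluorescence (ex 530/em 580 nm) read every 20 s, minus catalase background. kobs from the first 600 s, corrected for auto-inactivation, fit versus [I] for kinact/KI.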

T1 sequence (P05164 279-745 limits assumed): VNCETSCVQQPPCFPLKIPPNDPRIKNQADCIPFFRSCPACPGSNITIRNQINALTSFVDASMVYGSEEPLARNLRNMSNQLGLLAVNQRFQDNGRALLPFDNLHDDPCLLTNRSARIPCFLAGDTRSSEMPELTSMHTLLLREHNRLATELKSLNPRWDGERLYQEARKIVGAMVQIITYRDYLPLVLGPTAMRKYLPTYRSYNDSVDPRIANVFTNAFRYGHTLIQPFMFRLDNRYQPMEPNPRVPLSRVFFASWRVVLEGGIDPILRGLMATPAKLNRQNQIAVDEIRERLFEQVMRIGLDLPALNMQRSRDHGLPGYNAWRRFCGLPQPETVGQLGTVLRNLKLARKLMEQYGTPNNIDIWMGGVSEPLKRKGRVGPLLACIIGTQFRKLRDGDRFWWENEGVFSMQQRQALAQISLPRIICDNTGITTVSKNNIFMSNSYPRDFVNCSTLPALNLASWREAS
T1 sequence (P05164 165-273 limits assumed): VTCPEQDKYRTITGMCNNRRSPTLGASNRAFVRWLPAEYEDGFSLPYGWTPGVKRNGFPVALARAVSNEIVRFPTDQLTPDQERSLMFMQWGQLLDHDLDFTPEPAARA

Turning to `CCOC(=O)Cn1c(-c2ccc(OC)cc2OC)cc(=O)[nH]c1=S` [Example 221, ethyl [6-(2,4-dimethoxyphenyl)-4-oxo-2-thioxo-3,4-dihydropyrimidin-1(2H)-yl]acetate], the “MPO kinact/Ki” value was 6230 1/s per M.
In the case of `COc1ccc(-c2cc(=O)[nH]c(=S)n2CCOC(C)=O)c(OC)c1` [Example 222, 2-[6-(2,4-dimethoxyphenyl)-4-oxo-2-thioxo-3,4-dihydropyrimidin-1(2H)-yl]ethyl acetate] it was 9820 1/s per M.
As for `COc1ccc(-c2cc(=O)[nH]c(=S)n2CCNC(N)=O)c(OC)c1` [Example 223, 1-{2-[6-(2,4-dimethoxyphenyl)-4-oxo-2-thioxo-3,4-dihydropyrimidin-1(2H)-yl]ethyl}urea], the figure is 3000 1/s per M; as for `COc1ccc(-c2cc(=O)[nH]c(=S)n2CC(C)(C)CO)c(OC)c1` [Example 224, 6-(2,4-dimethoxyphenyl)-1-(3-hydroxy-2,2-dimethylpropyl)-2-thioxo-2,3-dihydropyrimidin-4(1H)-one], 3280 1/s per M; as for `COc1ccc(-c2cc(=O)[nH]c(=S)n2CCCCCO)c(OC)c1` [Example 225, 6-(2,4-dimethoxyphenyl)-1-(5-hydroxypentyl)-2-thioxo-2,3-dihydropyrimidin-4(1H)-one], 5490 1/s per M.
With `COc1ccc(-c2cc(=O)[nH]c(=S)n2CCOC(C)C)c(OC)c1` [Example 226, 6-(2,4-dimethoxyphenyl)-1-(2-isopropoxyethyl)-2-thioxo-2,3-dihydropyrimidin-4(1H)-one], the “MPO kinact/Ki” value is 6280 1/s per M.
`COc1ccc(-c2cc(=O)[nH]c(=S)n2CCCSC)c(OC)c1` [Example 227, 6-(2,4-dimethoxyphenyl)-1-[3-(methylthio)propyl]-2-thioxo-2,3-dihydropyrimidin-4(1H)-one]: the “MPO kinact/Ki” value was 745 1/s per M.
As for `COc1ccc(-c2cc(=O)[nH]c(=S)n2Cc2ccccc2)c(OC)c1` [Example 228, 1-benzyl-6-(2,4-dimethoxyphenyl)-2-thioxo-2,3-dihydropyrimidin-4(1H)-one], the figure is 615 1/s per M; as for `COc1cc(-c2cc(=O)[nH]c(=S)n2CC(N)=O)c(OC)cc1Cl` [Example 229, 2-[6-(4-chloro-2,5-dimethoxyphenyl)-4-oxo-2-thioxo-3,4-dihydropyrimidin-1(2H)-yl]acetamide], 5900 1/s per M.
As for `COc1ccc(-c2cc(=O)[nH]c(=S)n2Cc2ccccn2)c(OC)c1` [Example 230, 6-(2,4-dimethoxyphenyl)-1-(pyridin-2-ylmethyl)-2-thioxo-2,3-dihydropyrimidin-4(1H)-one], the figure is 1740 1/s per M; as for `COc1ccc(-c2cc(=O)[nH]c(=S)n2Cc2cccnc2)c(OC)c1` [Example 231, 6-(2,4-dimethoxyphenyl)-1-(pyridin-3-ylmethyl)-2-thioxo-2,3-dihydropyrimidin-4(1H)-one], 1910 1/s per M; as for `COc1ccc(-c2cc(=O)[nH]c(=S)n2Cc2ccncc2)c(OC)c1` [Example 232, 6-(2,4-dimethoxyphenyl)-1-(pyridin-4-ylmethyl)-2-thioxo-2,3-dihydropyrimidin-4(1H)-one], 4520 1/s per M.
In the case of `COCCn1c(-c2cc(OC)c(Cl)cc2OC)cc(=O)[nH]c1=S` [Example 233, 6-(4-chloro-2,5-dimethoxyphenyl)-1-(2-methoxyethyl)-2-thioxo-2,3-dihydropyrimidin-4(1H)-one] it was 2510 1/s per M; in that of `COc1ccc(-c2cc(=O)[nH]c(=S)n2Cc2ncccn2)c(OC)c1` [Example 234, 6-(2,4-dimethoxyphenyl)-1-(pyrimidin-2-ylmethyl)-2-thioxo-2,3-dihydropyrimidin-4(1H)-one], 3060 1/s per M.
In the case of `COc1ccc(-c2cc(=O)[nH]c(=S)n2CC2CCNCC2)c(OC)c1` [Example 235, 6-(2,4-dimethoxyphenyl)-1-(piperidin-4-ylmethyl)-2-thioxo-2,3-dihydropyrimidin-4(1H)-one hydrochloride], the “MPO kinact/Ki” value is given as 2690 1/s per M.
As for `COc1ccc(-c2cc(=O)[nH]c(=S)n2CC(=O)NC(=N)N)c(OC)c1` [Example 236, N-[amino(imino)methyl]-2-[6-(2,4-dimethoxyphenyl)-4-oxo-2-thioxo-3,4-dihydropyrimidin-1(2H)-yl]acetamide trifluoroacetate], the “MPO kinact/Ki” value is on record as 5740 1/s per M.
In the case of `COc1ccc(-c2cc(=O)[nH]c(=S)n2CCC(=O)N(C)C)c(OC)c1` [Example 237, 3-[6-(2,4-dimethoxyphenyl)-4-oxo-2-thioxo-3,4-dihydropyrimidin-1(2H)-yl]-N,N-dimethylpropanamide] it was 2360 1/s per M.
As for `COc1ccc(-c2cc(=O)[nH]c(=S)n2CC2CNCCO2)c(OC)c1` (centres unmarked) [Example 238, 6-(2,4-dimethoxyphenyl)-1-(morpholin-2-ylmethyl)-2-thioxo-2,3-dihydropyrimidin-4(1H)-one hydrochloride], the figure is 8740 1/s per M.
For `CCOC(=O)C(C)n1c(-c2ccc(OC)cc2OC)cc(=O)[nH]c1=S` (centres unmarked) [Example 239, ethyl 2-[6-(2,4-dimethoxyphenyl)-4-oxo-2-thioxo-3,4-dihydropyrimidin-1(2H)-yl]propanoate], the “MPO kinact/Ki” value was 1850 1/s per M.
`CCOC(=O)CCn1c(-c2ccc(OC)cc2OC)cc(=O)[nH]c1=S` [Example 240, ethyl 3-[6-(2,4-dimethoxyphenyl)-4-oxo-2-thioxo-3,4-dihydropyrimidin-1(2H)-yl]propanoate]: the “MPO kinact/Ki” value is 7070 1/s per M.
In the case of `COc1ccc(-c2cc(=O)[nH]c(=S)n2CC(=O)NCCN)c(OC)c1` [Example 241, N-(2-aminoethyl)-2-(6-(2,4-dimethoxyphenyl)-4-oxo-2-thioxo-3,4-dihydropyrimidin-1(2H)-yl)acetamide hydrochloride] it was 7060 1/s per M; in that of `COc1ccc(-c2cc(=O)[nH]c(=S)n2CCNCC(N)=O)c(OC)c1` [Example 242, N~2~-{2-[6-(2,4-dimethoxyphenyl)-4-oxo-2-thioxo-3,4-dihydropyrimidin-1(2H)-yl]ethyl}glycinamide], 142 1/s per M; in that of `COc1ccc(-c2cc(=O)[nH]c(=S)n2CCNCC(=O)O)c(OC)c1` [Example 243, N-{2-[6-(2,4-dimethoxyphenyl)-4-oxo-2-thioxo-3,4-dihydropyrimidin-1(2H)-yl]ethyl}glycine hydrochloride], 952 1/s per M.
In the case of `COc1ccc(-c2cc(=O)[nH]c(=S)n2CCOC(=O)CN)c(OC)c1` [Example 244, 2-[6-(2,4-dimethoxyphenyl)-4-oxo-2-thioxo-3,4-dihydropyrimidin-1(2H)-yl]ethyl glycinate tosylate], the “MPO kinact/Ki” value was 8970 1/s per M.
On to `COc1ccc(-c2cc(=O)[nH]c(=S)n2CCCNCCO)c(OC)c1` [Example 245, 6-(2,4-dimethoxyphenyl)-1-{3-[(2-hydroxyethyl)amino]propyl}-2-thioxo-2,3-dihydropyrimidin-4(1H)-one], for which the “MPO kinact/Ki” value is on record as 1520 1/s per M.
On to `COc1ccc(-c2cc(=O)[nH]c(=S)n2CCOCC(=O)O)c(OC)c1` [Example 246, {2-[6-(2,4-dimethoxyphenyl)-4-oxo-2-thioxo-3,4-dihydropyrimidin-1(2H)-yl]ethoxy}acetic acid], for which the “MPO kinact/Ki” value was 246 1/s per M.

The values above are taken from US9399626B2, “2-thiopyrimidinones” (Pfizer Inc., priority 2011, dated 2016).
